In patent publication US7877928B2, “Apparatus for use with a method for mass production of seedling of seed potato” (Koesan County, priority 2005, dated 2011):

Columns and labels:
[1] = tested on: in vitro potato seedlings, potato cultivar "Superior"; assay: Survival rates of stem cuttings of in vitro potato seedlings upon stem-cutting and acclimation according to supplemented components of MS medium; type: in vivo
Procedure: (§1) In order to determine conditions suitable for planting through stem cutting and acclimatizing tissue-cultured plantlets in DSCAC, the in vitro potato seedlings were evaluated for seedling quality and survival rates upon stem-cutting and acclimation according to the amount of supplemented components of MS medium.
(§2) The culture seedlings obtained from growing points collected from a seed potato cultivar, were tested for infection with viruses (PLRV, PVY, PVX, PVM, PVS and AMV) for selection of disease-free individuals. Then, plantlets were planted in 500-ml culture bottles containing 200 ml of a solid medium, which was prepared with a basic MS medium of pH 5.8 supplemented with 9 g/L of agar, and incubated for 25 days in a culture room under 4,500 Lux lighting for 18-20 hrs, and 0 Lux for 4-6 hrs using 4D fluorescent lamps, wherein the room temperature was maintained at 21° C. using an air conditioner. The in vitro potato seedlings were examined for growth states and survival rates upon stem-cutting and acclimation according to the amount of supplemented components of the medium.

[2] = tested on: in vitro potato seedlings, potato cultivar "Superior"; assay: Seedling quality (growth state) of in vitro tissue-cultured potato plantlets according to supplemented components of MS medium; type: in vivo
Procedure: as §1, §2

[3] = Table 2: sucrose 30 g/L, coumarin 0 mg/L in MS medium
[4] = Table 2: sucrose 80 g/L, coumarin 0 mg/L in MS medium
[5] = Table 3: sucrose 30 g/L, hyponex 0 g/L in MS medium
[6] = Table 3: sucrose 80 g/L, hyponex 0 g/L in MS medium
[7] = sucrose 20 g/L in MS medium, 25 days
[8] = sucrose 40 g/L in MS medium, 25 days
[9] = sucrose 60 g/L in MS medium, 25 days
[10] = sucrose 80 g/L in MS medium, 25 days
[11] = sucrose 100 g/L in MS medium, 25 days
[12] = sucrose 120 g/L in MS medium, 25 days
[13] = sucrose 140 g/L in MS medium, 25 days
[14] = coumarin 0.010 mg/L + sucrose 30 g/L in MS medium
[15] = coumarin 0.010 mg/L + sucrose 80 g/L in MS medium
[16] = coumarin 0.015 mg/L + sucrose 30 g/L in MS medium
[17] = coumarin 0.015 mg/L + sucrose 80 g/L in MS medium
[18] = coumarin 0.020 mg/L + sucrose 30 g/L in MS medium
[19] = coumarin 0.020 mg/L + sucrose 80 g/L in MS medium
[20] = coumarin 0.025 mg/L + sucrose 30 g/L in MS medium
[21] = coumarin 0.025 mg/L + sucrose 80 g/L in MS medium
[22] = coumarin 0.030 mg/L + sucrose 30 g/L in MS medium
[23] = coumarin 0.030 mg/L + sucrose 80 g/L in MS medium
[24] = coumarin 0.035 mg/L + sucrose 30 g/L in MS medium
[25] = coumarin 0.035 mg/L + sucrose 80 g/L in MS medium

OC[C@H]1O[C@@](CO)(O[C@H]2O[C@H](CO)[C@@H](O)[C@H](O)[C@H]2O)[C@@H](O)[C@@H]1O [Sucrose, sucrose]
Survival rates of stem cuttings [1, 3]: 33 | Survival rates of stem cuttings [1, 4]: 70 | Survival rates of stem cuttings [1, 5]: 28 | Survival rates of stem cuttings [1, 6]: 79 | Survival rates of stem cuttings ([1]; sucrose 20 g/L in MS medium): 27% | Survival rates of stem cuttings ([1]; sucrose 40 g/L in MS medium): 34% | Survival rates of stem cuttings ([1]; sucrose 60 g/L in MS medium): 59% | Survival rates of stem cuttings ([1]; sucrose 80 g/L in MS medium): 71% | Survival rates of stem cuttings ([1]; sucrose 100 g/L in MS medium): 68% | Survival rates of stem cuttings ([1]; sucrose 120 g/L in MS medium): 67% | Survival rates of stem cuttings ([1]; sucrose 140 g/L in MS medium): 72% | Fresh weight [2, 3]: 0.53 g/plant | Plant length [2, 3]: 5.3 cm/plant | Fresh weight [2, 4]: 0.72 g/plant | Plant length [2, 4]: 8.6 cm/plant | Fresh weight [2, 5]: 0.53 g/plant | Plant length [2, 5]: 7.2 cm/plant | Fresh weight [2, 6]: 1.03 g/plant | Plant length [2, 6]: 7.59 cm/plant | Fresh weight [2, 7]: 0.47 g/plant | Plant length [2, 7]: 6.2 cm/plant | Fresh weight [2, 8]: 0.53 g/plant | Plant length [2, 8]: 7.4 cm/plant | Fresh weight [2, 9]: 0.58 g/plant | Plant length [2, 9]: 9.3 cm/plant | Fresh weight [2, 10]: 0.75 g/plant | Plant length [2, 10]: 9.5 cm/plant | Benefit to in vitro plantlets (plant length, fresh weight, survival rates of stem cuttings) ([2]; sucrose 80 g/L in MS medium, compared with other amounts): most beneficial | Fresh weight [2, 11]: 0.69 g/plant | Plant length [2, 11]: 6.1 cm/plant | Fresh weight [2, 12]: 0.63 g/plant | Plant length [2, 12]: 5.2 cm/plant | Fresh weight [2, 13]: 0.67 g/plant | Plant length [2, 13]: 2.1 cm/plant

O=c1ccc2ccccc2o1 [Coumarin, coumarin]
Survival rates of stem cuttings [1, 14]: 73 | Survival rates of stem cuttings [1, 15]: 90 | Survival rates of stem cuttings [1, 16]: 78 | Survival rates of stem cuttings [1, 17]: 92 | Survival rates of stem cuttings [1, 18]: 80 | Survival rates of stem cuttings [1, 19]: 100 | Survival rates of stem cuttings [1, 20]: 83 | Survival rates of stem cuttings [1, 21]: 100 | Survival rates of stem cuttings [1, 22]: 88 | Survival rates of stem cuttings [1, 23]: 100 | Survival rates of stem cuttings [1, 24]: 81 | Survival rates of stem cuttings [1, 25]: 100 | Seedling quality and survival rates ([2]; MS medium with 80 g/L sucrose and 0.025 mg/L coumarin, compared with other amounts): highest seedling quality and survival rates | Fresh weight [2, 14]: 0.57 g/plant | Plant length [2, 14]: 6.1 cm/plant | Fresh weight [2, 15]: 1.12 g/plant | Plant length [2, 15]: 7.8 cm/plant | Fresh weight [2, 16]: 0.63 g/plant | Plant length [2, 16]: 6.5 cm/plant | Fresh weight [2, 17]: 1.13 g/plant | Plant length [2, 17]: 7.9 cm/plant | Fresh weight [2, 18]: 0.71 g/plant | Plant length [2, 18]: 6.7 cm/plant | Fresh weight [2, 19]: 1.31 g/plant | Plant length [2, 19]: 8.1 cm/plant | Fresh weight [2, 20]: 0.84 g/plant | Plant length [2, 20]: 6.9 cm/plant | Fresh weight [2, 21]: 1.65 g/plant | Plant length [2, 21]: 9.5 cm/plant | Fresh weight [2, 22]: 0.86 g/plant | Plant length [2, 22]: 6.7 cm/plant | Fresh weight [2, 23]: 1.39 g/plant | Plant length [2, 23]: 8.3 cm/plant | Fresh weight [2, 24]: 0.71 g/plant | Plant length [2, 24]: 6.4 cm/plant | Fresh weight [2, 25]: 1.36 g/plant | Plant length [2, 25]: 8.2 cm/plant
